This is an account of results in US20240115705A1, “Regulation of Butyrophilin subfamily 3 member A1 (BTN3A1, CD277)” (The J. Gladstone Institutes, a testamentary trust …, priority 2021, published 2024).

One experiment has as its system BTN3A. Nature of the experiment: Inhibitor dose response, surface BTN3A by flow cytometry in WT Daudi-Cas9 cells. Format: cell-based, human. As to conditions: 72 hours, complete RPMI, vs vehicle. The procedure: Daudi-Cas9 cells (180 μL) were seeded at 275,000 cells/mL in cRPMI in round-bottom 96-well plates. Twenty μL of zoledronate, rotenone (MedChemExpress), oligomycin A (Neta Scientific), FCCP (MedChemExpress), antimycin A (Neta Scientific), AICAR (Sigma), 2-DG (Sigma), Compound 991 (Selleck Chemical), A-769662 (Sigma), ethanol (vehicle), or DMSO (vehicle, at dilutions matching the treatment) at various concentrations were added to the cells. Plate edge wells were filled with 200 μL of sterile water or PBS. The cells were grown at 37° C. for 72 hours, and stained with APC-conjugated anti-human CD277 antibody (clone BT3.1, 1:50 dilution)(Miltenyi Biotec) and 7-AAD (1:150 dilution) (Tonbo). The cells were then analyzed on the Attune NxT flow cytometer.

The test system of the next experiment is Daudi-Cas9 cells. Nature of the experiment: γδ TCR tetramer staining (G115 Vγ9Vδ2 TCR clone) of Daudi-Cas9 cells. Format: cell-based, human. As to conditions: WT Daudi-Cas9 cells, 80 μM, 72 hours. The text has this: The G115 Vγ9Vδ2 TCR clone tetramer was generated using the following methods. The G115 γ-[…] chain sequence (Davodeau et al. J. Immunol. 151, 1214-1223 (1993)) was cloned into the pAcGP67A vector with a C-terminal acidic zipper, and the G115 δ-chain sequence (Davodeau et al. (1993)) as cloned into the pAcGP67A vector with a C-terminal AviTag followed by a basic zipper. Zippers stabilized the TCR complex. The TCR was expressed in the High Five baculovirus insect-cell expression system and purified via affinity chromatography over a Ni-NTA column. TCRs were biotinylated and biotinylation was confirmed using a TrapAvidin SDS-PAGE assay. The G115 TCR was then further purified using size-exclusion chromatography (Superdex200 100/300 GL column, GE Healthcare) and purity was confirmed via SDS-PAGE. Tetramers were generated by incubating biotinylated TCR with streptavidin conjugated to the PE fluorophore.
Daudi-Cas9 KO cells were analyzed 13 and 14 days post-lentiviral transduction. WT Daudi-Cas9 cells were analyzed after being cultured for 72 hours with 0.5 mM AICAR, 80 μM Compound 991, DMSO (vehicle control at the concentration matching Compound 991), or nothing. […] Stained cells were analyzed on the Attune NxT flow cytometer.

A further experiment deals with BTN2A1 transcripts. Briefly: RT-qPCR of drug-treated Daudi-Cas9 cells, BTN2A1. Format: cell-based, human. To be noted: 80 PM, 72 hours, normalized to ACTB and DMSO. The method, then: (§1) For measurement on Daudi-Cas9 KOs, samples were collected at 13 days after lentiviral transduction. For measurements on drug-treated WT Daudi-Cas9 cells, 180 μL of Daudi-Cas9 cells were seeded in a round-bottom 96-well plate at 275,000 cells/mL. All surrounding wells were filled with 200 μL of sterile PBS or water. With four replicates per treatment, cells were treated with 20 μL of AICAR (final concentration 0.5 mM), Compound 991 (final concentration 80 PM), DMSO, or water. The cells were collected for RT-qPCR measurements after 72 hours of incubation. RNA was extracted from approximately 70,000 cells per sample using the Quick-RNA 96 Kit (Zymo Research) or Direct-zol RNA Microprep Kit (Zymo) according to the manufacturer's protocol without the optional on-column DNase I treatment. According to the manufacturer's protocol, 1 μL of RNA was immediately processed using the Maxima First Strand cDNA Synthesis Kit for RT-qPCR with the dsDNase treatment (Thermo Fisher). Two cDNA synthesis reactions, in addition to a reverse transcriptase minus (RT−) negative control reaction, were performed for each biological replicate. […] Ct values across the three technical replicates for each sample were assessed for significant outliers resulting from technical failures (any samples in triplicate with a standard deviation above 0.2 were assessed) and subsequently averaged. […]

The test system of the next experiment is BTN3A1 transcripts. Nature of the experiment: RT-qPCR of drug-treated Daudi-Cas9 cells, BTN3A1. The format is cell-based, human. As to conditions: 80 PM, 72 hours, normalized to ACTB and DMSO. The procedure:
as §1

Another experiment concerns BTN3A2 transcripts. Nature of the experiment: RT-qPCR of drug-treated Daudi-Cas9 cells, BTN3A2. Format: cell-based, human. As to conditions: 80 PM, 72 hours, normalized to ACTB and DMSO. The method, then: as §1
The target in experiment [1] is BTN2A1-BTN3A1-BTN3A2 cell surface complex on Daudi-Cas9 cells (human; Homo sapiens) (UniProt Q7KYR7). Nature of the experiment: flow cytometry, PE-TCR tetramer (160 nM) staining of WT Daudi-Cas9 cells treated 72 h with 80 µM Compound 991 against DMSO.
Chain of UniProt Q7KYR7 (Q7KYR7 29-527, chain 1 of 3): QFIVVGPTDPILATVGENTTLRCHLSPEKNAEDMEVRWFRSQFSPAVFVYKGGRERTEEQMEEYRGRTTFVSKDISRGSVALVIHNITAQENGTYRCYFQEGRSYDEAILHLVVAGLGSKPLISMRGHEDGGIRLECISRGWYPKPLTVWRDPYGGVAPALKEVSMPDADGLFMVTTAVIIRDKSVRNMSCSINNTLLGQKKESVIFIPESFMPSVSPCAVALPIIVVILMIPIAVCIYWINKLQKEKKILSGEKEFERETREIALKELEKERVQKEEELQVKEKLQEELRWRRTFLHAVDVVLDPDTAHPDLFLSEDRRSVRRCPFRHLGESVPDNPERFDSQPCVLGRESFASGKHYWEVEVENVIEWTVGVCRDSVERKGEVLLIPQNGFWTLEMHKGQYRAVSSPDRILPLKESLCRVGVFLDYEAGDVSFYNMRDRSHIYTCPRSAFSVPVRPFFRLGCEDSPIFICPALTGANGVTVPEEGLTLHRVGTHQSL
Chain of UniProt Q7KYR7 (chain, as listed by the source, chain 2 of 3): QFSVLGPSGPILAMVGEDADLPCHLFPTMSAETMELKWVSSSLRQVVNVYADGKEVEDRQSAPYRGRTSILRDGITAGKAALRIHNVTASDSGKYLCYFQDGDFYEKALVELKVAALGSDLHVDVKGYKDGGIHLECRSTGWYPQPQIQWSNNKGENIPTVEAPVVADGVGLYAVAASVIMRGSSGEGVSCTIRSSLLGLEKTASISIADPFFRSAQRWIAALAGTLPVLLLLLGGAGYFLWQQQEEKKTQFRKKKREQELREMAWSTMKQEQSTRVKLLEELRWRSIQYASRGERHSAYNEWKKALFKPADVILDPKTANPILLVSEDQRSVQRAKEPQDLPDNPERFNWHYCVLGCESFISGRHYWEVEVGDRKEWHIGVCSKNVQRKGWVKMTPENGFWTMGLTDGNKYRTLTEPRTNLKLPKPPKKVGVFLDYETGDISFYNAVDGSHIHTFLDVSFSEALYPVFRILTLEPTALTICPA
Chain of UniProt Q7KYR7 (chain, as listed by the source, chain 3 of 3): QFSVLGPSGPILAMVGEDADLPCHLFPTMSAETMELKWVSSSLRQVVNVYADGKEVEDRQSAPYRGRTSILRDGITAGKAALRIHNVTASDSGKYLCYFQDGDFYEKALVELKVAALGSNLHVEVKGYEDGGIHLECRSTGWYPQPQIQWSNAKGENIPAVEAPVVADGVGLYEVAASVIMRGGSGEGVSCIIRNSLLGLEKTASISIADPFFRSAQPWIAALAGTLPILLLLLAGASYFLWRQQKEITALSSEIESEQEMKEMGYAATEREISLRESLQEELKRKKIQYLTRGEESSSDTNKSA
Experiment [2] shares this target. Nature of the experiment: flow cytometry, PE-TCR tetramer (160 nM) staining of WT Daudi-Cas9 cells treated 72 h with 0.5 mM AICAR against untreated cells.

For the compound `Cc1ccc(Oc2nc3cc(-c4ccc5c(ccn5C)c4)c(Cl)cc3[nH]2)cc1C(=O)O` [Compound 991], in the experiment on BTN3A, the “surface BTN3A (MFI)” value was “Upregulation of surface BTN3A”. In the experiment with Daudi-Cas9 cells, the “staining with G115 Vγ9Vδ2 TCR tetramer compared to vehicle control-treated cells” value is listed as “about five times higher”. In the experiment with BTN2A1 transcripts, the “BTN2A1 transcript level by qPCR” value was “transcriptionally upregulated”. Also, the “BTN3A1 transcript level by qPCR” value in the experiment on BTN3A1 transcripts is given as “transcriptionally upregulated”. In addition, in the experiment with BTN3A2 transcripts, the “BTN3A2 transcript level by qPCR” value is “transcriptionally upregulated”.

Take “PE-conjugated Vγ9Vδ2 TCR (clone G115) tetramer (from UniProt P22629 37-163)”: in experiment [1], the fold tetramer staining against vehicle control-treated cells came to 5 fold. The same compound returned a percent increase of tetramer staining in experiment [2] of 40 to 80%.
